Assay results reported in patent US20260077056A1, “LINKER-PAYLOAD COMPOUND, CONJUGATES AND APPLICATIONS THEREOF” (priority 2022, published 2026).

How the values were obtained:
[1] = system: HER2 negative cell line MDA-MB-468; assay: Cytotoxicity assay (CellTiter-Glo cell viability), MDA-MB-468; format: cell-based; conditions: for IC50: Homo sapiens, MDA-MB-468, 96 h, 96 h treatment
Protocol: (§1) Cytotoxicity assays were performed using HER2 high-expressing cancer cells NCI-N87 (FIG. 1) and SK-BR-3 (FIG. 2), as well as a HER2 negative cell line MDA-MB-468 (FIG. 3) to analyze the effect of conjugates on tumor cell proliferation. […] In brief, 5000 cells were plated in 96-well plates, and cells were able to attach overnight. Cells were treated with indicated drugs with various concentrations for 96 h. Cell viabilities were examined by CellTiter-Glo® Luminescent Cell Viability Assay, and percentage of cell viability was calculated.
as §1, with “4)” for “1)”, “5),” for “2),”, “6)” for “3)”

[2] = system: FGFR3 negative cancer cell MCF-7; assay: Cytotoxicity assay (CellTiter-Glo cell viability), MCF-7; format: cell-based; conditions: 96 h
Protocol: (§2) Cytotoxicity assays were performed using FGFR3 high-expressing cancer cells RT112/84 and RT4, FGFR3 negative cancer cell MCF-7 (FIG. 7) to analyze the effect of conjugates on tumor cell proliferation. The tested articles included conjugate EC302-2-4-1-2, and a small molecule eribulin (structure is depicted above). In brief, 2000 cells (RT112/84) or 5000 cells (RT4 or MCF-7) were plated in 96-well plates, and cells were able to attach overnight. Cells were treated with indicated drugs with various concentrations for 96 h. Cell viabilities were examined by CellTiter-Glo® Luminescent Cell Viability Assay, and percentage of cell viability was calculated.

[3] = system: HER2 high-expressing cancer cells SK-BR-3; assay: Cytotoxicity assay (CellTiter-Glo cell viability), SK-BR-3; format: cell-based; conditions: for IC50: Homo sapiens, SK-BR-3, 96 h, 96 h treatment
Protocol: (§3) Cytotoxicity assays were performed using HER2 high-expressing cancer cells NCI-N87 (FIG. 1) and SK-BR-3 (FIG. 2), as well as a HER2 negative cell line MDA-MB-468 (FIG. 3) to analyze the effect of conjugates on tumor cell proliferation. The tested articles included conjugates EC302-2-4-1-1 and EC301-2-1-1-1, and a small molecule eribulin (structure is depicted above). In brief, 5000 cells were plated in 96-well plates, and cells were able to attach overnight. Cells were treated with indicated drugs with various concentrations for 96 h. Cell viabilities were examined by CellTiter-Glo® Luminescent Cell Viability Assay, and percentage of cell viability was calculated.
as §1, with “4)” for “1)”, “5),” for “2),”, “6)” for “3)”

[4] = system: FGFR3 high-expressing cancer cells RT4; assay: Cytotoxicity assay (CellTiter-Glo cell viability), RT4; format: cell-based; conditions: RT4, FGFR3-positive; 96 h
Protocol: as §2

[5] = system: FGFR3 high-expressing cancer cells RT112/84; assay: Cytotoxicity assay (CellTiter-Glo cell viability), RT112/84; format: cell-based; conditions: RT112/84, FGFR3-positive; 96 h
Protocol: as §2

[6] = system: HER2 high-expressing cancer cells NCI-N87; assay: Cytotoxicity assay (CellTiter-Glo cell viability), NCI-N87; format: cell-based, human; conditions: for IC50: Homo sapiens, NCI-N87, 96 h, 96 h treatment
Protocol: as §3
as §1, with “4)” for “1)”, “5),” for “2),”, “6)” for “3)”

Q: Which “cytotoxicity, in words” value ([1]; Effect Example 1, MDA-MB-468, HER2 negative) does the source give for `C=C1C[C@@H]2CC[C@@]34C[C@H]5O[C@H]6[C@@H](O3)[C@H]3O[C@H](CC[C@@H]3O[C@H]6[C@H]5O4)CC(=O)C[C@@H]3[C@@H](OC)[C@@H](C[C@H](O)CN)O[C@H]3C[C@H]3O[C@@H](CC[C@@H]1O2)C[C@@H](C)C3=C` [Eribulin] here?
A: Its value is “sensitive”.

Q: What about the IC50 ([1]; Effect Example 1, Table 4) of the same compound?
A: Its IC50 is 0.211 nM.

Q: What about the IC50 ([1]; Effect Example 2, Table 5) of the same compound?
A: Its IC50 is 0.094 nM.

Q: What about the “cytotoxicity, in words” value [2] of the same compound?
A: The value was “sensitive”.

Q: And the “cell proliferation-inhibitory effect, in words” value ([3]; Effect Example 1, SK-BR-3, HER2 high)?
A: Its value is “sensitive”.

Q: What about the IC50 ([3]; Effect Example 1, Table 4) of the same compound?
A: The IC50 was 0.298 nM.

Q: What about the IC50 ([3]; Effect Example 2, Table 5) of the same compound?
A: The IC50 was 0.211 nM.

Q: And the “effect on cell proliferation, in words” value [4]?
A: The value was “sensitive”.

Q: And the “effect on cell proliferation, in words” value [5]?
A: The value was “sensitive”.

Q: And the “cell proliferation-inhibitory effect, in words” value ([6]; Effect Example 1, NCI-N87, HER2 high)?
A: Its value is “sensitive”.

Q: And the IC50 ([6]; Effect Example 1, Table 4)?
A: The IC50 was 0.448 nM.

Q: What about the IC50 ([6]; Effect Example 2, Table 5) of the same compound?
A: The IC50 was 0.501 nM.
